Assay results taken from ChEMBL document CHEMBL1152335, “NMR strategy for unraveling structures of bioactive sponge-derived oxy-polyhalogenated diphenyl ethers” (J Nat Prod, 2009).

What follows are compounds tested against Induced myeloid leukemia cell differentiation protein Mcl-1 (Homo sapiens, UniProt Q07820) (assay: Inhibition of Bak binding to Mcl-1 by FRET assay).
Sequence of Induced myeloid leukemia cell differentiation protein Mcl-1 (Q07820 whole entry): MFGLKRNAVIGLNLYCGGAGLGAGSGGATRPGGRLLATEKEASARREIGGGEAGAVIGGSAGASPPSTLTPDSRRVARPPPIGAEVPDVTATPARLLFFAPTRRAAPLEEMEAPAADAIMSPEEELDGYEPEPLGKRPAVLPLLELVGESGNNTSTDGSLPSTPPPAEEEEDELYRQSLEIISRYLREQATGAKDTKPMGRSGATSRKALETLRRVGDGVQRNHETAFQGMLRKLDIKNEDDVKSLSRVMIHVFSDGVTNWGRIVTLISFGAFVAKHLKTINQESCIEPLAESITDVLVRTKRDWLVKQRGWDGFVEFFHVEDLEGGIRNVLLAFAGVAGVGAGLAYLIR
For `Oc1c(Br)cc(Br)cc1Oc1c(O)c(Br)cc(Br)c1Br`, the IC50 was > 16.8 µM. For `Oc1cc(Br)c(Br)c(Br)c1Oc1cc(Br)cc(Br)c1O`, the IC50 was > 16.8 µM. `COc1c(Br)c(Br)cc(Br)c1Oc1cc(Br)cc(Br)c1O` was tested, and the IC50 was > 16.4 µM. `Oc1cc(Br)cc(Br)c1Oc1ccc(Br)cc1Br` was tested, and the IC50 was 4.78 µM. For `Oc1c(Br)cc(Br)cc1Oc1c(O)c(Br)c(Br)c(Br)c1Br`, the IC50 was > 14.8 µM. With `Oc1c(Br)cc(Br)cc1Oc1c(Br)cc(Br)c(Br)c1O` the IC50 was > 16.8 µM. With `Oc1c(Br)c(Br)cc(Br)c1Oc1ccc(Br)cc1Br` the IC50 was > 17.2 µM. For `Oc1c(Br)cc(Br)cc1Oc1cc(Br)c(Br)c(Br)c1O`, the IC50 was > 16.8 µM.
